In assay [1] the target is T1, Mr 75000-85000 protein (Mus musculus, UniProt P21729). The assay can be described thus: ¹²⁵I-GRP affinity labelling (EGS cross-linking) of the Mr 75000-85000 protein in Swiss 3T3 cells, SDS-PAGE and scanning densitometry. The class given is binding. To be noted: 2.5 h; read-out: Mr 75000-85000 protein % of control. Further details: endogenous in cells; host or cells: Swiss 3T3 cells (confluent, quiescent, intact). How it is done:
(§1) After 2.5 h the cells were washed three times at 15°C with phosphate buffered saline (PBS) ad then incubated for 15 min at 15°C In 1 ml of binding medium, pH 7.4 In the presence of the appropriate cross-linking agent at the concentration indicated. The cross-linking agents (EGS, DSS, DSP and BSCOES) were dissolved in dimethyl sulphoxide immediately prior to use and were added to medium to give a final concentration of dimethylsulphoxide of 1-2%. The cultures were rapidly rinsed twice with PBS at 4°C and solubilized in 0.1ml of 2 x sample buffer 0.2 M Tris-HCl, pH 6.8, 10% (w/v) glycerol, 6% sodium dodecyl sulphate (SDS) (w/v) 4% β-mercaptoethanol (v/v) and 2 mM ethylenediaminetetraacetic acid. Samples were immediately heated at 100°C for 3-5 min and analysed by either one or two-dimensional gel electrophoresis.
Slab gel electrophoresis was performed using 7.5% acrylamide in the separating gel ad 5% in the stacking gel, ad 0.1% SDS (31). […] The Mr 75000-85000 band from autoradiograms was scanned using a Joyce-Loebl double beam densitometer and the areas under specific peaks were measured with a Hewlett-Packard digitizer.
Confluent cultures of 3T3 cells were incubated with 5 nM ¹²⁵I-GRP in the presence of varying concentrations of non-radioactive ligand at 15°C for 2.5 h. […] The cells were then solubilized and samples were analyzed by SDS-PAGE. […]

The test system of assay [2] is Swiss 3T3 cells. The assay can be described thus: GRP-induced DNA synthesis ([³H]thymidine incorporation) in Swiss 3T3 cells. In kind it is cell-based, mouse. Conditions: for IC50: GRP 3.6 nM, 40 hours, Figure 3 right, read-out: Half-maximal inhibition of DNA synthesis; for concentration of GRP required to produce half-maximal stimulation of DNA synthesis: antagonist at 20 »m, Figure 3 left. How it is done:
(§2) Cell culture procedure (33), assays of DNA synthesis by ³H-thymidine incorporation (34) ad ¹²⁵I-GRP binding to intact cells (13) were performed as described previously.
Figure 3. Inhibition of GRP-induced DNA synthesis by [DPro²]spantide (A) and [DPhe⁵]spantide (D). […] After 40 hours DNA synthesis was estimated by [³H]thymidine incorporation into acid-precipitable material. […] Each point represents the mean of duplicate determinations. […] Values are expressed as a percentage of [³H]thymidine incorporation obtained in the absence of antagonists (100% = 8.6 x 10⁵ cpm per dish). Each point represents the mean of 4 determinations.
For orientation: Incorporation of labelled thymidine or its analogues reports DNA synthesis.

The target in a further assay is T2, GRP receptor (Mus musculus, UniProt P21729).
T2 construct: endogenous in cells; host or cells: Swiss 3T3 cells (mouse fibroblasts)
T2 sequence (P21729 whole entry): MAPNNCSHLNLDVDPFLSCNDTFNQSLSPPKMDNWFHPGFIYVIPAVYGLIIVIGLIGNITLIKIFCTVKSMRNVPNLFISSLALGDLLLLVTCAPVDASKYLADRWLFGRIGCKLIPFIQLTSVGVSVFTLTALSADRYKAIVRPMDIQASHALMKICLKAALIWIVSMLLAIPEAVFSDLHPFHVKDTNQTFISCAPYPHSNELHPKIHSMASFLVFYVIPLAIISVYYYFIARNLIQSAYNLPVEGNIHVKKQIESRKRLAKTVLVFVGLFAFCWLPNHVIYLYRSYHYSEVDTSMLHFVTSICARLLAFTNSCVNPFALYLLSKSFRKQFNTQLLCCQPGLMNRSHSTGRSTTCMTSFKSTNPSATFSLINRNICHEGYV
The assay can be described thus: specific [¹²⁵I]GRP binding to intact Swiss 3T3 cells. How it is done:
as §2
(§3) Figure 4. […] Values are expressed as percentage of the specific binding obtained in the absence of antagonists. […] Each point represents the mean of 3 determinations. […] Specific binding (B) is expressed in pmol/10⁶ cells and is shown in a double-reciprocal plot. Each point represents the mean of duplicate determinations. […] After 2 hours, the cultures were washed twice with binding medium then incubated in 1 ml containing 6 mM ethylene glycol bis (succinimidylsuccinate) (EGS) at pH 7.4 for 15 minutes at 15°C. The cultures were then washed twice with cold phosphate-buffered saline and solubilised in 0.1 ml of 2x sample buffer, then immediately heated at 100°C for 5 minutes and electrophoresed on a 10% polyacrylamide gel.

The test system of assay [3] is Swiss 3T3 cells. The assay can be described thus: GRP-stimulated rise in cytosolic Ca²⁺ concentration (fura-2 fluorescence) in Swiss 3T3 cells. The class given is cell-based, mouse. To be noted: for rise in [Ca²⁺]i caused by the addition of GRP: GRP (1 nM). How it is done: (§4) Figure 5. […] Left: Effects of antagonists on [Ca²⁺]i. Quiescent Swiss 3T3 cells grown on Cytodex 2 beads were washed twice with DMEM and incubated for 10 minutes with fura-2 tetracetoxymethyl ester at 1 »m, then washed three times and suspended in 2 ml of electrolyte solution (6) in the fluorimeter at 37°C and stirred. Fluorescence was recorded continuously in a Perkins-Elmer LS5 luminescence spectrometer with an excitation wavelength of 335 nm and emission wavelength of 510 nm. After a period of equilibration, the following additions were made: solvent, S; antagonist A at 5 »m, A, 5 and 20 »m, A, 20; antagonist D at 5»m, D, 5. […] Values are expressed as percentages of the specific binding obtained with [¹²⁵I]EGF alone at 0.2 nM. The non-specific binding was obtained by the addition of 500-fold excess of unlabelled EGF. Each point represents the mean of 6 determinations.

Assay [4] has as its system Swiss 3T3 cells. Briefly: reversal of the inhibition of [¹²⁵I]EGF binding induced by GRP in Swiss 3T3 cells. In kind it is cell-based, mouse. To be noted: read-out: Half-maximal reversal of inhibition (of [¹²⁵I]EGF binding by GRP); [¹²⁵I]EGF 0.2 nM, GRP 3.6 nM, 1 hour, 37°C. How it is done: as §4
A further assay concerns H69 cells. Briefly: growth of SCLC cell line in serum-free medium (cell number, Coulter Counter). In kind it is cell-based. Conditions: for IC50: H69 cells, serum-free medium, 13 days, read-out: half-maximal effect (inhibition of growth). How it is done: (§5) Figure 6. […] Stock cultures of cell lines H69, H128 and H417 were maintained in RPMI 1640 medium with 10% fetal bovine serum (heat inactivated) in a humidified atmosphere of 10% CO₂:90% air at 37°C. They were passaged every 7 days. Identical growth was obtained in the serum-free medium of RPMI 1640 supplemented with HITES (29) (hydrocortisone, 10 nM; insulin, 5 »g/ml; transferrin, 100 »g/ml; 17β-estradiol, 10 nM; sodium selenite, 30 nM) and 0.25% bovine serum albumin. […] Cell number was determined at intervals over 14 days in a Coulter Counter after disaggregation of cell clumps by syringing through 19G and 21G needles. Each point represents the mean of 3 determinations.
Figure 7. Inhibition of SCLC growth in vitro by [DPro²]spantide and [DPhe⁵]spantide is concentration-dependent. Cultures of H69 cells were washed twice with RPMI 1640 medium then incubated in serum-free medium (as in Figure 6) in the absence (●) or presence of various concentrations of [DPro²]spantide (o,A) and [DPhe⁵]spantide (△,D). Cell number was determined in a Coulter Counter after disaggregation of cell clumps by syringing through 19G and 21 G needles. Samples were incubated for 13 days, when the controls (inset) had achieved 10-fold increase in number, indicated by the arrow. Each point represents the mean (± standard deviation) of 5 determinations.

Another assay concerns H128. The description is as above. In kind it is cell-based. To be noted: antagonist at 150 »m, reversed by washing. How it is done:
as §5

The subject of a further assay is H417. The description is as above. The class given is cell-based. To be noted: antagonist at 150 »m, reversed by washing. How it is done:
as §5

The target in assay [5] is T1, Mr 75000-85000 protein. The assay can be described thus: ¹²⁵I-GRP affinity labelling (EGS cross-linking) of the Mr 75000-85000 protein in Swiss 3T3 cells, SDS-PAGE and scanning densitometry. The class given is binding. Further details: endogenous in cells; host or cells: Swiss 3T3 cells (mouse fibroblasts). How it is done:
as §1
Slab gel electrophoresis was performed using 7.5% acrylamide in the separating gel ad 5% in the stacking gel, ad 0.1% SDS (31). After electrophoresis gels were stained, destained and dried down onto paper for autoradiography with Fuji X-ray film (Fuji Photo Film Co. Ltd. Japan). Dried gels were exposed to film for 4-8 days. Two-dimensional gel electrophoresis was performed as described by O'Farrell (32) using isoelectric focusing in the 1st dimension and SDS-polyacrylamide gel electrophoresis (SDS-PAGE) (8% polyacrylamide) in the second dimension. The samples prepared for isoelectric focusing containing 1.4% LKB ampholytes, pH 5-7, plus 0.6% LKD ampholytes, pH 3.5-10, 6M urea, and 2% Nonidet P-40. The Mr 75000-85000 band from autoradiograms was scanned using a Joyce-Loebl double beam densitometer and the areas under specific peaks were measured with a Hewlett-Packard digitizer.
After this time some cells were washed four times with cold (4°C) PBS supplemented with 1 mg/ml BSA, solubilized and total cell associated radioactivity was then determined in a gamma counter. […] The cells were then solubilized and samples were analyzed by SDS-PAGE. After electrophoresis, gels were dried, exposed to film and scanned as described in Materials and Methods. The areas under the individual peaks for the Mr 75000-85000 protein are shown as a function of the concentration of the unlabelled peptide and are expressed as a percentage of the control. […] The level of the Mr 75000-85000 protein expressed in arbitrary units is shown as a function of the concentration of the labelled ligand. Inset: autoradiogram of the gel used for scanning; the Mr 75000-85000 and 160,000 bands are indicated by arrows. All other experimental details were as described in Materials and Methods.
as §3
After the incubation period cultures were treated with 6 mM EGS as described in Materials and Methods. Each value is expressed as a percentage of the level of the Mr 75000-85000 protein obtained with no additons (-). Other experimental details are as described in Materials and Methods.

Non-standard residues stand in square brackets, D forms with d. Residues, ends and D or L forms follow the SMILES beside them.

T1 sequence (P21729 whole entry): as above

As to `CCCC(=O)O[C@@H]1[C@@H](C)[C@@]2(O)[C@@H](C=C(CO)C[C@]3(O)C(=O)C(C)=C[C@@H]23)[C@@H]2C(C)(C)[C@]12OC(=O)CCC` [Phorbol 12,13-dibutyrate], the remaining activity at 2 µM at Mr 75000-85000 protein [1] is 99%.
As for `CC(C)C[C@H](NC(=O)[C@H](CC(C)C)NC(=O)[C@@H](Cc1c[nH]c2ccccc12)NC(=O)[C@H](Cc1ccccc1)NC(=O)[C@@H](Cc1c[nH]c2ccccc12)NC(=O)[C@H](CCC(N)=O)NC(=O)[C@@H](Cc1ccccc1)NC(=O)[C@@H]1CCCN1C(=O)[C@H](CCCCN)NC(=O)[C@@H]1CCCN1C(=O)[C@H](N)CCCNC(=N)N)C(N)=O` [[DPhe⁵]spantide, D-Arg-Pro-Lys-Pro-D-Phe-Gln-D-Trp-Phe-D-Trp-Leu-Leu-NH₂] (H-[dR]PKP[dF]Q[dW]F[dW]LL-NH2), in the assay on Swiss 3T3 cells [2], the IC50 worked out at 22 µM and the “concentration of GRP required to produce half-maximal stimulation of DNA synthesis” value is on record as “markedly increased”. For the same compound, the “fold more potent than [DPro²]spantide in inhibiting DNA synthesis induced by GRP” value with Swiss 3T3 cells [2] (ratio of half-maximal concentrations) is reported as 5.4 fold. Further, in the assay with Swiss 3T3 cells [2] (substance P antagonists tested at 50 »m, ranking in words), the “ability to inhibit mitogenesis stimulated by GRP” value was “most potent GRP antagonist”. Also, at GRP receptor (10 »m antagonist, double reciprocal plot, number of binding sites unchanged), the “affinity of the receptors of [¹²⁵I]GRP” value is recorded as “markedly reduces the affinity”. The difference in potency on GRP receptor ([DPhe⁵]spantide versus [DPro²]spantide, inhibition of specific [¹²⁵I]GRP binding) worked out at 6.1 fold. Further, the “rise in [Ca²⁺]i caused by the addition of GRP” value with Swiss 3T3 cells [3] (antagonist at 5 »m) was “effective”. In addition, the “response to PDGF ([Ca²⁺]i)” value with Swiss 3T3 cells [3] (antagonist at 5 »m, PDGF at 1 nM, specificity) was “did not prevent”. The “fold more potent than [DPro²]spantide in this assay” value in the assay with Swiss 3T3 cells [3] (prevention of the GRP-induced rise in [Ca²⁺]i) is listed as “at least 4 fold”. Besides, the EC50 in the assay on Swiss 3T3 cells [4] is 8.7 µM. Moreover, in the assay on H69 cells, the IC50 was determined as 24 µM. For the same compound, the “potency of Antagonist D over Antagonist A” value with H69 cells (H69 growth inhibition) was “more than 5 fold”.
For `CC(C)C[C@H](NC(=O)[C@H](CC(C)C)NC(=O)[C@@H](Cc1c[nH]c2ccccc12)NC(=O)[C@H](Cc1ccccc1)NC(=O)[C@@H](Cc1c[nH]c2ccccc12)NC(=O)[C@H](CCC(N)=O)NC(=O)[C@H](CCC(N)=O)NC(=O)[C@@H]1CCCN1C(=O)[C@H](CCCCN)NC(=O)[C@H]1CCCN1C(=O)[C@H](N)CCCNC(=N)N)C(N)=O` [[DPro²]spantide, D-Arg-D-Pro-Lys-Pro-Gln-Gln-D-Trp-Phe-D-Trp-Leu-Leu-NH₂] (H-[dR][dP]KPQQ[dW]F[dW]LL-NH2), the IC50 in the assay on Swiss 3T3 cells [2] came out at 118 µM; at GRP receptor (read-out: Half-maximal inhibition of binding) it was 14 µM; in the assay on H69 cells, 82 µM; on Mr 75000-85000 protein [5] (read-out: Half-maximal inhibition (affinity-labelling of the Mr 75000-85000 protein)), 20 µM. Moreover, the “concentration of GRP required to produce half-maximal stimulation of DNA synthesis” value in the assay on Swiss 3T3 cells [2] is reported as “only a slight effect”. The “rise in [Ca²⁺]i caused by the addition of GRP” value with Swiss 3T3 cells [3] (antagonist at 5 »m) is “not”; with Swiss 3T3 cells [3] (antagonist at 20 »m), “prevented”. In the assay with Swiss 3T3 cells [4], the EC50 was found to be 30 µM. Also, the “rate of growth in serum-free medium” value in the assay with H69 cells (H69, antagonist at 150 »m, reversed by washing) is “abolished”; in the assay with H128, “abolished”; in the assay on H417 it was “abolished”. The “cross-linking of ¹²⁵I-GRP / level of the Mr 75000-85000 protein (in words)” value at Mr 75000-85000 protein [5] (summary of Table 1, saturating concentrations of the other mitogens) is “markedly inhibited”. Besides, at Mr 75000-85000 protein [5] (¹²⁵I-GRP (0.5 nM), 15°C, 2.5 h, 6 mM EGS, additions: GRP 360 nM, GRP (14-27) 30 nM, bombesin 30 nM, litorin 92 nM, neuromedin B 220 nM, [D-Arg¹,D-Pro²,D-Trp^7,9,Leu¹¹] substance P 100 »M, GRP (1-16) 3230 nM, PDGF 5 nM, EGF 83 nM, vasopressin 1000 nM, insulin 1 »g/ml, phorbol 12,13 dibutyrate 2000 nM, substance P 740 nM, substance K 880 nM, somatostatin 610 nM, neurotensin 600 nM), the “Mr 75000-85000 protein % of control” value is given as 9.7 % of control.

Values taken from patent publication EP0359745B1, “GROWTH FACTOR RECEPTOR” (IMPERIAL CANCER RESEARCH TECHNOLOGY LIMITED, priority 1987, dated 1988).
